Laboratory results published in patent US11878003B2, “Composition comprising organoselenium compound for treatment of skeletal muscle atrophy” (Gwangju Institute of Science and Technology, priority 2021, dated 2024).
pIC50: −log10 of the molar value. Where two headings read alike, the source gives them in different places.

Tests used:
[1] = system: C2C12 myoblasts; assay: Myogenesis, myotube formation and morphology without dexamethasone; format: cell-based, mouse; details: for myotube formation and overall myotube diameters: 10 μM ebselen, 5 mM LiCl or 1.25 μM BIO, 24 hours
Procedure: (§1) Then, the myoblasts were treated with a differentiation medium (DMEM supplemented with 2% horse serum and PenStrep) for 72 hours so that the myoblasts were induced to differentiate into myotubes.
In differentiation cultures, myotubes were visualized by treatment with 50 nM MitoTracker Red CMX-Ros and […] DAPI in a differentiation medium at 37° C. for 30 minutes and imaged using a fluorescence microscope (Leica DMI3000B, Germany) as described above.
(§2) To evaluate myotube formation and atrophy, five microscopic fields of H&E-stained or MitoTracker Red CMX-Ros-stained cultures were randomly captured, and multinuclear myotube formation and diameters were calculated. Myotubes were designated as multinucleated cells containing three or more nuclei, and the diameters of myotubes were calculated using ImageJ 1.48 software (National Institutes of Health, Bethesda, MD, USA).

[2] = system: Atrogin-1, MuRF-1, FoxO3a expression; assay: qPCR of atrophy genes in dexamethasone-treated myotubes; format: cell-based, mouse; details: for Atrogin-1 and FoxO3a expression: 10 μM dexamethasone 24 hours
Procedure: (§3) C2C12 myoblasts were seeded onto 6-well plates in a growth medium (GM). After reaching confluence, the cultures were treated with DM for 72 hours, and myotube atrophy was induced with DM containing 10 μM dexamethasone for 24 hours in the presence or absence of the drug of interest. Myotubes were visualized using hematoxylin and eosin staining according to a previously published protocol, and imaged with an optical microscope (Olympus CKX41, Japan). A myotube distribution was calculated by dividing the number of myotubes in each group by the total number of myotubes per image.
(§4) The transcription level of the gene was measured using a StepOnePlus Real Time PCR System (manufactured by Applied Biosystems, UK). cDNA was reverse transcribed from total RNA using an AccuPower RT PreMix (manufactured by Bioneer, USA). Real-time PCR was performed by modifying the manufacturer's instructions as follows.
(§5) PCR was performed three times using a total of 20 μL of 2×Power SYBR Green PCR Master Mix containing 200 nM of specific primers and 1 μL of cDNA. 10 minutes of incubation was performed at 95° C. prior to PCR amplification. The amplification consisted of 40 cycles of denaturation (for 15 seconds at 95° C.), annealing (for 1 minute at 60° C.), and extension (for 20 seconds at 72° C.). Extension and fluorescence detection were performed at 72° C. after each cycle. After the final cycle, melting point analysis was performed using continuous fluorescence detection on samples at a temperature in a range of 60° C. to 95° C. Specific cDNA samples were included in each run and used as a reference for comparison between runs. Expression levels of GAPDH were used for normalization and expression levels of all other genes were calculated.

[3] = system: C2C12 myotubes; assay: Dexamethasone-induced myotube atrophy, H&E morphology; format: cell-based, mouse; details: co-treatment with 10 μM dexamethasone; for average myotube diameter: 24 hours
Procedure: as §3, §2

[4] = system: C2C12 myoblasts; assay: MTT assay, myoblast viability; format: cell-based, mouse; details: for concentration at which cytotoxicity was not observed: MTT; for pIC50: read-out: IC50, MTT assessment
Procedure: C2C12 mouse skeletal muscle progenitor cells (myoblasts) were grown in a growth medium including Dulbecco's Modified Eagle's Medium (DMEM) supplemented with 10% fetal bovine serum (FBS), 50 units/mL if penicillin, and […] of streptomycin (PenStrep).
(§6) Cell proliferation was evaluated through MTT (3-(4,5-dimethylthiazol-2-yl)-2,5-diphenyltetrazolium bromide) assay as described above. Myoblasts were seeded 3 times into 96-well plates at a density of 2×10^3 cells per well. A compound to be tested was added, followed by 48 hours of incubation, the medium was changed to an MTT solution (0.5 mg/mL, final concentration), and the plate was incubated in an incubator at 37° C., 5%, CO2 conditions. After 60 minutes of incubation, 50 μL of DMSO was added. Optical density in each well was measured at 570 nm using a microplate reader (VersaMax, Molecular Devices, USA). For myotube analysis, myoblasts were differentiated for […], the medium was supplemented with the compound of interest, 48 hours of incubation was additionally performed, and the cultures were assayed.

[5] = system: C2C12 myotubes; assay: MTT assay and microscopy, myotube viability; format: cell-based, mouse
Procedure: as §1, §6

[6] = system: FoxO3a; assay: Immunocytochemistry of FoxO3a in myotubes; format: cell-based, mouse
Procedure: Myoblasts were differentiated into myotubes in 6 well plates. The myotubes were then immunostained for FoxO3a (Cell Signaling Technology, dilution of 1:400). Alexa Fluor 488 goat anti-mouse IgG was used as a secondary antibody (manufactured by Invitrogen). Nuclei were stained using DAPI solution (1 μM dissolved in third distilled water). Staining was visualized by fluorescence microscopy (Leica DMI3000 B).

[7] = system: IMPase; assay: IMPase activity assay in myotubes (myo-inositol assay kit); format: cell-based, mouse; details: 10 μM dexamethasone
Procedure: IMPase activity in cells and tissues was measured using a myo-inositol assay kit (Megazyme, Ireland) according to the manufacturer's instructions. The cell […] was sonicated in PBS for 90 seconds with a 30-second on and 15-second off cycle (Vibra-Cell, USA) as described above, and then centrifuged at 13,000×g for 15 minutes as described above. Thus, the supernatant was prepared.

[8] = system: C57BL/6J mice; assay: Skeletal muscle degenerative glycerol model; format: in vivo, mouse
Procedure: The glycerol infusion protocol was used to induce muscle degeneration. Male C57BL/6J mice were anesthetized with PBS containing ketamine (22 mg/kg; Yuhan, Republic of Korea) and xylazine (10 mg/kg; Bayer, Republic of Korea), 100 μL glycerol (50% vol/vol) was injected into unilateral gastrocnemius muscle and splenic muscle.
The mice were treated with vehicle (0.5% methyl cellulose) or with vehicle+ebselen (30 mg/kg) via oral gavage every 24 hours (n=6 per group). A muscle fatigue test was performed after 5 days.
Muscle fatigue was measured using a known protocol (Chiu, et al.). In summary, mice were trained prior to initiating the fatigue task using an accelerated Rotarod (Ugo Basile, Italy). Mice were trained with a Rotarod at a constant speed of 13 rpm for 15 minutes. After 15-minute recovery, mice were placed on a Rotarod adapted to accelerate to 13 to 25 rpm within 3 minutes, for 15 minutes. After 24 hours, the muscle fatigue test was performed with a ramping rate of 13 to 25 rpm within 3 minutes and held at 25 rpm for 30 minutes. For each mouse, a delay time falling from the Rotarod was measured. Mice being tiered were classified as falling 4 times within 1 minute and the test was stopped.
Before sacrificing the mice, the mice were anesthetized by intraperitoneal injection of PBS containing ketamine (22 mg/kg; Yuhan Corporation, Korea) and xylazine (10 mg/kg; Bayer, Korea). After sacrificing the mice, the gastrocnemius and splenic muscles of the glycerol injury model were dissected and weighed. For histological analysis, the muscles were incubated overnight with 4% paraformaldehyde at 4° C., fixed, and embedded in paraffin. 5-μm muscle sections were obtained and was stained with H&E using a kit according to the manufacturer's instructions (Merck & Co., USA). Damaged areas and cross-sectional areas were measured using ImageJ 1.48 software (National Institutes of Health).

[9] = system: C2C12 myotubes; assay: SUnSET assay of protein synthesis; format: cell-based, mouse
Procedure: Surface sensing translation (SUnSET) assay was performed as described above. Briefly, 1 μg/mL puromycin was added to the culture and the harvest was lysed after 10 minutes. For immunoblotting, the myotube extract was treated with anti-puromycin 12D10 antibody (MABE343; Millipore).

[10] = system: human skeletal myoblasts; assay: Dexamethasone atrophy in human skeletal myotubes; format: cell-based; details: 24 hours
Procedure: Human skeletal myoblasts were purchased from Thermo-Fisher Scientific. Myoblasts were thawed in a water bath, washed with […], and centrifuged at 180 g for 5 minutes at room temperature. Next, myoblasts were resuspended in DM and seeded in a 12-well plate at a density of 4.8×10^4 cells/well. After 72 hours, the myoblasts were treated with a compound for 24 hours. The myotube diameter was measured by optical microscopy analysis of DIC captured images (Olympus CKX41).

[11] = system: C57BL/6J mice; assay: Skeletal muscle atrophy dexamethasone model; format: in vivo, mouse
Procedure: 13-week-old male C57BL/6J mice were treated with drugs as follows: • 1) Injection of vehicle (4% hydroxypropyl-β-cyclodextrin) alone; • 2) 15 mg/kg of dexamethasone dissolved in vehicle; • 3) 15 mg/kg of dexamethasone and 1 mg/kg of ebselen; and • 4) Injection of 15 mg/kg dexamethasone and 3 mg/kg ebselen (n=5 per group).
The muscle condition was evaluated after intraperitoneal injection daily for 14 days with the same drug as above.
A grip strength of each mouse was recorded using a BIO-GS3 (Bioseb, USA). To measure the grip strength, mice were placed on a metal grid to grip the metal grid with four paws and were gently pulled back until the mice were unable to continue holding the grid. Muscle strength was expressed using the maximum value obtained from three trials at 1-minute intervals.
Mice were placed in the center of a grid, and it was made sure that the grid was gripped by the limbs of the mice. Next, the grid was turned over and hung at a height of 50 cm above a baseline, and the hanging time was measured up to 10 minutes.
In the case of the dexamethasone-induced atrophy model, the quadriceps, gastrocnemius and splenic muscles were dissected and weighed. The quadriceps were stained with H&E according to the same protocol used for the glycerol test and used for histological analysis.

[12] = system: Pax7, Myf5, MyoG, Myh2 expression; assay: qPCR of myogenic markers in differentiating myoblasts; format: cell-based, mouse; details: differentiation medium, 100 mM myo-inositol
Procedure: as §4, §5

[13] = 100 mM myo-inositol, no dexamethasone

With 6-Bromoindirubin-3-oxime [BIO] the “myotube formation and overall myotube diameters” value [1] was “inhibited myotube formation”.

CC(Oc1ccc(O)cc1)(P(=O)(O)O)P(=O)(O)O [L-690,330, [1-(4-hydroxyphenoxy)-1-phosphonoethyl]phosphonic acid] was tested, and the FoxO3a expression ([2]; 10 μM dexamethasone) was “inhibited the up-regulation”, the “proportion of larger diameter myotubes” value [3] was “larger diameter myotubes were observed” and the average myotube diameter [3] was “increased”. For the same compound, the “concentration at which cytotoxicity was not observed” value [4] was “up to 50 μM”.

In the case of [Cl-].[Li+] [LiCl], the “myotube formation and overall myotube diameters” value [1] was “enhanced myotube formation and increased overall myotube diameters”, the FoxO3a expression ([2]; 10 μM dexamethasone) was “inhibited the up-regulation” and the “proportion of larger diameter myotubes” value [3] was “larger diameter myotubes were observed”. The average myotube diameter [3] was “increased”, the “number of observable myotubes” value ([5]; microscopic observation, 50 mM LiCl) was “reduced” and the pIC50 ([4]; 48 hours) was 1.70. The “concentration at which cytotoxicity was not observed” value [4] was “up to 5 mM”.

O=C1c2ccccc2[Se](=O)N1c1ccccc1 (centres unmarked) [ebselen oxide] was tested, and the “Atrogin-1 and FoxO3a expression” value [2] was “inhibited the expression”.

For O=c1c2ccccc2[se]n1-c1ccccc1 [ebselen], the “myotube formation and overall myotube diameters” value [1] was “enhanced myotube formation and increased overall myotube diameters”, the “proportion of larger diameter myotubes” value ([1]; no dexamethasone) was “significantly increased” and the “FoxO3a up-regulation caused by dexamethasone” value [6] was “inhibited”. For the same compound, the “Atrogin-1 and FoxO3a expression” value [2] was “inhibited the up-regulation”, the average myotube diameter [3] was “did not show a decrease” and the IMPase activity [7] was “effective in inhibiting IMPase activity”. For the same compound, the body weight ([8]; 30 mg/kg ebselen, oral gavage every 24 hours) was “no significant difference”, the concentration of myo-inositol ([8]; gastrocnemius muscle damaged by glycerol) was “decreased” and the “expression of Atrogin-1 and Murf-1” value ([8]; gastrocnemius, qPCR) was “effectively reduced”. For the same compound, the gastrocnemius muscle mass ([8]; glycerol-injected muscle) was “increased”, the “mass loss of splenic muscle” value ([8]; glycerol-injected splenic muscle) was “significantly inhibited” and the damaged area ([8]; histology, H&E) was “reduced”. The fiber cross-sectional area ([8]; histology, H&E) was “larger”, the gastrocnemius mass ([8]; non-injected muscles, oral ebselen) was “did not affect” and the protein synthesis ([9]; alone or with dexamethasone) was “effective in increasing protein synthesis”. The protein synthesis ([9]; dexamethasone-treated myotubes) was “increased”, the “myotube diameter and proportion of large diameter myotubes” value [10] was “inhibited the effect of dexamethasone” and the body weight ([11]; 15 mg/kg dexamethasone with ebselen, i.p. daily 14 days, vs untreated mice) was “significant weight loss”. For the same compound, the quadriceps mass ([11]; 15 mg/kg dexamethasone, 1 or 3 mg/kg ebselen, i.p. daily 14 days) was “recovered”, the hanging time ([11]; inverted hanging test, vs dexamethasone-treated mice) was “significantly enhanced” and the IMPase activity ([11]; quadriceps) was “inhibitory effect of ebselen on IMPase activity was confirmed”. The “muscle fiber cross-sectional area” value ([11]; quadriceps, histology) was “increased”, the “ratio of larger fibers” value ([11]; quadriceps, histology) was “increased” and the “expression of Atrogin-1 and Murf-1” value ([11]; quadriceps, qPCR) was “effectively reduced”. The grip strength ([11]; vs dexamethasone-treated mice) was “significantly enhanced”, the “concentration at which cytotoxicity was not observed” value [4] was ≤ 10 µM and the pIC50 ([4]; Mus musculus, C2C12, 48 hours) was 4.65.

For O[C@H]1[C@H](O)[C@@H](O)[C@H](O)[C@@H](O)[C@H]1O [myo-inositol], the average myotube diameter [1, 13] was “decreased”, the average myotube length [1, 13] was “decreased” and the myotube morphology ([1]; 100 mM, 48 hours, H&E) was “induced shortened and narrower myotubes”. For the same compound, the “number of immature myotubes” value ([1]; DM with 100 mM myo-inositol, 48 hours) was “reduced”, the “proportion of larger diameter myotubes” value ([1]; no dexamethasone) was “reduction” and the “expression of atrogin-1, MuRF-1 and FoxO3a” value ([2]; 10 μM dexamethasone, 100 mM myo-inositol) was “further increased”. The “expression of MyoG and Myh2” value [12] was “reduced”, the “expression of Pax7 and Myf5” value [12] was “increased” and the myotube length [3] was “significantly reduced”. For the same compound, the average myotube diameter [3] was “significantly reduced”, the cytotoxicity ([5]; myotubes, 500 mM, 48 hours) was “significant cytotoxicity” and the “concentration without cytotoxicity / effect on cell viability” value ([5]; myotubes, MTT, 48 hours) was “below 250 mM”. For the same compound, the protein synthesis ([9]; alone or with dexamethasone) was “decreased”.
